Results as given in patent US12595438B2, “Biodegradable quaternary ammonium compound” (GALAXY SURFACTANTS LTD., priority 2021, dated 2026).

Key:
Format in all cases: cell-based
A. niger ATCC 16404 = assay: MIC determination, test tube method; details: tryptic soy broth, 22.5° C. for 48-72 hours
Excerpt: (§1) The Minimum Inhibitory concentration (MIC) is the lowest dilution which inhibits the growth of microorganism. MIC assays generate a value in μg/mL for the exact, lowest concentration of the antimicrobial agent that prevents the visible growth of bacteria. MIC was detected by using test tube method using different dilution in sterile tryptic soya broth (growth medium). (Ref.: https://www.ncbi.nlm.nih.gov/pmc/articles/PMC7470068/ this link describes about Test tube method of MIC)
(§2) • Working stock preparation: 1% in sterile D/W • Diluent: Sterile tryptic soy broth • Dilution range: 0.1% to 1%, further diluted to 100 ppm to 1000 ppm • Addition of culture: 0.1 mL of 18-24 hours old culture • Incubation temperature and time: • Bacteria: 37° C. for 24-48 hours • Y/M: 22.5° C. for 48-72 hours
(§3) Antimicrobial efficacy of diamidoquat was studied as per MIC standard protocol.

C. albicans ATCC 10231 = assay: MIC determination, test tube method; details: tryptic soy broth, 22.5° C. for 48-72 hours
Excerpt: as §1, §2, §3

E. coli ATCC 10142 = assay: MIC determination, test tube method; details: tryptic soy broth, 37° C. for 24-48 hours
Excerpt: as §1, §2, §3

S. aureus ATCC 6538 = assay: MIC determination, test tube method; details: tryptic soy broth, 37° C. for 24-48 hours
Excerpt: as §1, §2, §3

P. aeruginosa ATCC 9372 = assay: MIC determination, test tube method; details: tryptic soy broth, 37° C. for 24-48 hours
Excerpt: as §1, §2
(§4) The minimum inhibitory concentration (MIC) of Diamidoquat (DAQ), Benzalkonium chloride (BKC) and Esterquat (EQ) is shown in Table 1.
as §3

Test Organism = assay: Overall MIC over all test organisms
Excerpt: as §1, §2, §4, §3

Benzalkonium chloride [BKC]
MIC (A. niger ATCC 16404): 0.7%
MIC (C. albicans ATCC 10231): 0.7%
MIC (E. coli ATCC 10142): 0.7%
MIC (S. aureus ATCC 6538): 0.6%
MIC (P. aeruginosa ATCC 9372): 0.7%
Overall MIC (Test Organism): 0.7%
